The conditions of data set [1]: 293.15 K; 101.33 kPa; Liquid; Vibrating tube method.
Data set [2] is described as follows: refractive index (Na D-line) (dimensionless). The conditions noted are these: 293.15 K; 101.33 kPa; Liquid; Standard Abbe refractometry.

Numbers after ± are expanded uncertainties.

For the molecule `OCC(O)CO` [glycerol], in data set [1], the mass density (commonly the mass of a sample divided by its volume) is 1261.3 ± 0.5 kg/m3. In addition, the refractive index (as a rule, the speed of light in vacuum divided by its phase velocity in the sample) in data set [2] is 1.474 ± 0.001.

In the case of `CO` [methanol], the mass density in data set [1] is listed as 791.03 ± 0.23 kg/m3. For the same molecule, the refractive index in data set [2] is given as 1.328 ± 0.001.

As to `O` [water], the refractive index in data set [2] is 1.333 ± 0.001.
